Laboratory results from patent US9839241B2, “Methods, devices and systems for pulmonary delivery of active agents” (priority 2014, dated 2017).
Entries after “also recorded” stand apart in the source; their conditions may differ. Where two headings read alike, the source gives them in different places.

Legend:
[1] = PK study: plasma Δ^9-THC levels after single dose inhalation from cannabis flos with the metered-dose inhaler (MDI)
Description: A study was conducted in order to characterize the inter-individual variability of Δ^9-THC plasma levels during the absorption phase, upon using a hand-held metered-dose MDI device configured for pulmonary delivering pre-determined amounts of the active agent Δ^9-THC from a solid substance (cannabis-derived plant substance) upon heating the substance.
Routine medications were continued throughout the trial.

[2] = system: neuropathic pain; experiment: VAS pain intensity after pulmonary delivery of Δ^9-THC with the MDI; type: in vivo, human
Description: (§1) The study was used to further evaluate the pharmacodynamic effect of pulmonary delivery of Δ^9-THC on pain reduction from baseline using a 10 cm visual analog scale (VAS) pain scale (0 being no pain; and 10 being worst possible pain); for monitoring adverse effects, blood pressure and heart rate, and for estimating the degree of satisfaction with the use of the MDI on a 0-10 scale.
The study was conducted at the Pain Research Unit of Rambam Health Care Campus in Haifa, Israel.
(§2) Pain intensity reduction was assessed as a therapeutic effect by asking participants to indicate the intensity of their current pain on a 100 mm visual analog scale (VAS) between 0 (no pain) and 100 (worst possible pain) at baseline (prior to the inhalation) and at 20 and 90 minutes following the pulmonary delivery of the pharmaceutically active agent from cannabis. Adverse effects, in the form of psychotropic symptoms, were recorded at 5, 15, 30, 60 and 120 minutes post pulmonary delivery, along with those spontaneously reported by the participants. Adverse effects were evaluated according to standardized criteria in terms of severity, frequency, duration and relationship to the study's active agent. Adverse effects were graded using the NIH Division of AIDS table for scoring severity of adult adverse experiences. Blood pressure and pulse rate were also recorded before, during and after the pulmonary delivery.
Results are reported herein as mean values±1 standard deviation (±SD). For each one of the measured effects (VAS pain intensity, systolic and diastolic blood pressure, heart rate and satisfaction score), the mean and 95% confidence interval (CI) at different time points was plotted. Differences between VAS pain intensity values and satisfaction scores, before and after inhalation, were tested by two-tailed paired Student t-test. Blood pressure and heart rate values were compared among different time points by one-way ANOVA. P-values <0.05 were accepted as significant. All statistical analyses were performed using Minitab Statistical Software, version 16.

[3] = Monitoring of adverse effects, blood pressure and heart rate after inhalation; type: in vivo, human
Description: as §1, §2
Results are reported herein as mean values±1 standard deviation (±SD). […]

[4] = cited from earlier work; for mean Cmax increase per mg Δ^9-THC: continuous blood withdrawal
[5] = system: chronic neuropathic pain; details: cited from earlier work; for reduction of pain intensity: Wilsey et al. 2013, vaporized 10.3 mg total available Δ^9-THC in two sessions
[6] = Analysis of residual cannabis material after vaporization in the MDI

In the case of CCCCCc1cc(O)c2c(c1)OC(C)(C)[C@@H]1CCC(C)=C[C@@H]21 [Δ^9-THC, Δ9-tetrahydrocannabinol], the “inter-individual variability of Cmax (coefficient of variation)” value (“inter-individual variability of Cmax” for short) ([1]; MDI device) is reported as 25.3%, the AUC ([1]; human, plasma, inhaled or intranasal, 3.08 mg, AUC (Mean), mean of 8 participants, same single dose inhalation) is reported as 10.1 ng·h/mL and the Cmax ([1]; human, plasma, inhaled or intranasal, 3.08 mg, Cmax (Mean), mean of 8 participants, same single dose inhalation) is reported as 38 ng/mL. For the same molecule, the Tmax ([1]; human, plasma, inhaled or intranasal, 3.08 mg, Tmax (Mean), mean of 8 participants, same single dose inhalation) was 3 min, the AUC(0-inf) ([1]; human, plasma, inhaled, 3.08 mg) was 10.1 ng·h/mL and the “time of first detection in blood sample” value ([1]; post-inhalation, six patients without residual plasma THC at baseline) was 1 min. The “increase of Cmax per mg of Δ^9-THC available in the cannabis used (mean)” value ([1]; pulmonary delivery method described herein (MDI)) was 12.3 ng/ml/mg Δ^9-THC, the “plasma concentration profile over time” value ([1]; pulmonary delivery with the MDI) was “rapid absorption, followed by bi-phasic decline in plasma concentration over time” and the “decrease of VAS pain intensity from baseline” value ([2]; 20 minutes after inhalation, baseline 7.5±1.4, 95% CI [2.1, 4.9], P=0.001) was 3.4 points. The “VAS pain intensity versus baseline” value ([2]; 90 minutes post-dosing) was “virtually identical results as at baseline”, the “time to reversal of pain reduction” value ([2]; single inhalation, 3.08±0.02 mg total available Δ^9-THC) was ≤ 90 min and the “time to full recovery from light headedness” value ([3]; all the other patients, post-inhalation) was ≤ 30 min. For the same molecule, the “adverse effects (overall)” value ([3]; single dose inhalation with MDI, listed as THC) was “minimal, reversible and well tolerated; also recorded: minimal, reversible and receded rapidly”, the “mean Cmax increase per mg Δ^9-THC” value ([4]; after the first puff of a 1.75% Δ^9-THC cigarette) was 3.54 ng/ml per mg Δ^9-THC and the “mean Cmax increase per mg Δ^9-THC” value ([4]; after the first puff of a 3.55% Δ^9-THC cigarette) was 4.28 ng/ml per mg Δ^9-THC. For the same molecule, the “plasma Cmax levels per mg of Δ^9-THC administered” value ([4]; intravenous administration (Ohlsson et al. 1980)) was 43.8 ng Δ^9-THC/ml plasma, the “inter-individual variability of Cmax” value ([4]; oral administration) was 42-115% and the “inter-individual variability of Cmax” value ([4]; oromucosal route of delivery) was 59-67%. For the same molecule, the “inter-individual variability of Cmax” value ([4]; smoking cigarettes) was 32-115%, the “inter-individual variability of Cmax” value ([4]; vaporizer (Abrams)) was 47-85% and the “mean Cmax elevation” value ([5]; Ware et al. 2010, single smoke inhalation of 25±1 mg cannabis, 9.4% Δ^9-THC, three times a day for 5 days) was 45 ng/mL. For the same molecule, the “reduction of neuropathic pain (plateau, ceiling effect)” value ([5]; Wilsey et al. 2008, smoking 19 mg or 34 mg total available Δ^9-THC in 3 doses) was 45%, the “reduction of pain intensity” value ([5]; 3 hours) was 31% and the “reduction of pain intensity” value ([5]; 5 hours) was 25%. The “cannabinol (product of THC oxidation) in residues” value [6] was “no increase of cannabinol”.
